We go through 8 molecules from PMC3514547 (Biochemistry, 2012).

Where “and” joins values, the source holds several entries; their conditions need not be identical. Equal values may be shown once. Read-outs that look alike come from different tables or passages of the source.

For data set [1], the target named is T1, Pot1pN (first DNA-binding OB fold of S. pombe Pot1) (Schizosaccharomyces pombe, UniProt O13988). Briefly: ITC of ligand binding to Pot1pN. To be noted: for -TΔS / ΔH / Kd: ITC, 20 °C; for Kd: one-site binding model.
The target of data set [2] is T2, Pot1pN binding to 6mer ssDNA (Schizosaccharomyces pombe, UniProt O13988).
T2 sequence (O13988 1-187 limits assumed): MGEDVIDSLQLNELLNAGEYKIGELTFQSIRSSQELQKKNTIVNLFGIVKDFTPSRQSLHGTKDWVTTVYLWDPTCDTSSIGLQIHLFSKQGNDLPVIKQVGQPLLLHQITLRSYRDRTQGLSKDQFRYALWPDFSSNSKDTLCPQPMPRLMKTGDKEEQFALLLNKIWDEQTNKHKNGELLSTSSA
Put plainly: Secondary double filter-binding assay, Pot1pN/6mer. To be noted: compound up to 500 μM.

The target in data set [3] is T3, SpPot1-DBD binding to d(GGTTACGGTTAC) (Schizosaccharomyces pombe, UniProt O13988).
T3 sequence (O13988 1-389 limits assumed): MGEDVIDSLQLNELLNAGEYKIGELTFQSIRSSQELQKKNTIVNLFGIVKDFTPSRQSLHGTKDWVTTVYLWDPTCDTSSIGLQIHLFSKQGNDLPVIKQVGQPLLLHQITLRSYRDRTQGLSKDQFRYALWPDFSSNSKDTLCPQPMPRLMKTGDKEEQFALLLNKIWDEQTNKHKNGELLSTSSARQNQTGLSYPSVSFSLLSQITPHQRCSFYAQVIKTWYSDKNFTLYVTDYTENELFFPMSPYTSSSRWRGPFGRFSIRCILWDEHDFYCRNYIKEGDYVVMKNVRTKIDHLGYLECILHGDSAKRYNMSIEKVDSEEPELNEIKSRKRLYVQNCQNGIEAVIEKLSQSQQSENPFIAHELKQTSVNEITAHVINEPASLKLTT
Briefly: Double filter-binding competition assay, SpPot1-DBD/cognate ssDNA.

The subject of data set [4] is cell culture and animal models. As to conditions: high doses (~ 100 μM); cited from earlier work.
The next data set in a line: CR solubility at NMR pH. It counts as physicochemical.
In the next data set the test system is germ cells. To be noted: prenatal administration during germ cell development, mice; cited from earlier work.
Another data set concerns amyloidosis phenotypes. As to conditions: low doses (≤ 10 μM); cited from earlier work.
The conditions of data set [5]: cited from earlier work.
The target in data set [6] is T4, hPOT1-DBD binding to d(GGTTAGGGTTAG) (Homo sapiens, UniProt Q9NUX5).
T4 sequence (Q9NUX5 1-299): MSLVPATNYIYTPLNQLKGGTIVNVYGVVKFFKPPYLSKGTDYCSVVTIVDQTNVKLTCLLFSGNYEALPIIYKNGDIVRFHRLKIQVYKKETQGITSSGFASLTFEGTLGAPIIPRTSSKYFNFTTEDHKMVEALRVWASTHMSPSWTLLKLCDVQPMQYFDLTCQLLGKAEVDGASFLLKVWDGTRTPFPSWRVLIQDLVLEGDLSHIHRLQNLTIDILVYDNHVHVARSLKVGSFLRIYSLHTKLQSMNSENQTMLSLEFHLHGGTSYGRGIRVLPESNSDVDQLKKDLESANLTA
Put plainly: Double filter-binding competition assay, hPOT1-DBD/telomeric ssDNA.

Another data set deals with T5, Pot1pN (Schizosaccharomyces pombe, UniProt O13988).
T5 sequence (O13988 1-187 limits assumed): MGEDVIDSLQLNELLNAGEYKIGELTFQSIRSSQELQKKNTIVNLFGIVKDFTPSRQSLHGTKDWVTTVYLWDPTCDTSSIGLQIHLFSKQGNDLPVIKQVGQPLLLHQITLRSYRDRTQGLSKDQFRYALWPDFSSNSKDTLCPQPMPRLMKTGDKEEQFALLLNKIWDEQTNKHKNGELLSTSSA
Put plainly: Dynamic light scattering of Pot1pN/CR complex. To be noted: DLS, equimolar CR 300 μM.

Data set [7] deals with T1, Pot1pN (first DNA-binding OB fold of S. pombe Pot1). As to conditions: read-out: KD of Pot1pN/6mer interaction; cognate ssDNA ligand; cited from earlier work.
In a further data set the target is T6, SpPot1-DBD (Pot1-DBD) (Schizosaccharomyces pombe, UniProt O13988 1-389).
T6 sequence: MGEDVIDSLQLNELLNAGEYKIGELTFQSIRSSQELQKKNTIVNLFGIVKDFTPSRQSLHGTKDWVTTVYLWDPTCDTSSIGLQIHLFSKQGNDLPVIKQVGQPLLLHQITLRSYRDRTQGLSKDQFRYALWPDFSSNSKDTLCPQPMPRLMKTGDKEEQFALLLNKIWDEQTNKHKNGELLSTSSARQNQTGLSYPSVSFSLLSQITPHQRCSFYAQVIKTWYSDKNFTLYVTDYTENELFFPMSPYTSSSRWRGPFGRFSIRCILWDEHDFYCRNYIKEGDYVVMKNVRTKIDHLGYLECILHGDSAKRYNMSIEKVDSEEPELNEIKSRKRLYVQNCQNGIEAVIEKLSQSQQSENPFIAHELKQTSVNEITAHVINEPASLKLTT
Briefly: double-filter binding.

For a further data set, the target named is T7, hPOT1 (hPOT1-DBD) (human, UniProt Q9NUX5 1-299).
T7 sequence: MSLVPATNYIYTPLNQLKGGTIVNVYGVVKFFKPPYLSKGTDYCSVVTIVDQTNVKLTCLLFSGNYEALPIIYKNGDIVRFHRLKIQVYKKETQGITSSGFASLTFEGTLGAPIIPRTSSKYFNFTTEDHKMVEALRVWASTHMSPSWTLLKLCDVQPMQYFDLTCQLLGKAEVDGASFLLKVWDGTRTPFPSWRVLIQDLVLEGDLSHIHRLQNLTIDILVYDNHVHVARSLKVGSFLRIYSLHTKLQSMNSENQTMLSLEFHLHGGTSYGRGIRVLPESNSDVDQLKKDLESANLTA
Put plainly: double-filter binding.

A further data set deals with T8, 6xHis-Pot1pN (TR-FRET) (Schizosaccharomyces pombe, UniProt O13988 1-187).
T8 sequence: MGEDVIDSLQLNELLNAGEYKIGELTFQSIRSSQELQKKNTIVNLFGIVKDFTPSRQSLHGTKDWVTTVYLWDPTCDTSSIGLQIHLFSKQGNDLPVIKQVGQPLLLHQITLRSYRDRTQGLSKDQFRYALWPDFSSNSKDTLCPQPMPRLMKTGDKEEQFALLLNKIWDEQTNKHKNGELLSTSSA
Put plainly: TR-FRET.

In data set [8] the target is T9, Pot1pN (first OB fold of SpPot1) (Schizosaccharomyces pombe, UniProt O13988 1-187).
T9 sequence: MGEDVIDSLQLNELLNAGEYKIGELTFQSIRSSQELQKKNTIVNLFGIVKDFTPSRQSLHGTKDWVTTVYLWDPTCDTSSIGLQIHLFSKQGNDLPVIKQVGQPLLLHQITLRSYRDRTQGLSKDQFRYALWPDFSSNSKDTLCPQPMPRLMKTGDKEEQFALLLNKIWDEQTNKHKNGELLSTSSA
Put plainly: double-filter binding.

`Cc1cc(-c2ccc(/N=N/c3c(S(=O)(=O)O)cc4cc(S(=O)(=O)O)cc(N)c4c3O)c(C)c2)ccc1/N=N/c1c(S(=O)(=O)O)cc2cc(S(=O)(=O)O)cc(N)c2c1O` [TB, Trypan blue]: in data set [1], the “-TΔS” value is 5.7 ± 0.02 kcal/mol; the ΔH is reported as -13.6 ± 0.004 kcal/mol; the Kd is 1.21 µM and 1.2 µM.

As to `Nc1c(/N=N/c2ccc(-c3ccc(/N=N/c4cc(S(=O)(=O)O)c5ccccc5c4N)cc3)cc2)cc(S(=O)(=O)O)c2ccccc12` [CR, Congo red], in [2], the “inhibition of Pot1pN binding to 6mer” value is “functionally inhibited Pot1pN binding to 6mer”. In addition, in [3], the concentration for half-maximal inhibition (IC50) came out at 112 ± 9 µM. The toxicity result in [4] is given as “toxic”. Also, the “solubility behaviour at pH 6.15” value in the data set “CR solubility at NMR pH” is “precipitates from solution”. Further, in the data set on germ cells, the “effect on germ cell number” value is “drastic and permanent reduction in germ cell number”. In addition, the “effect on amyloidosis phenotypes and cell survival” value in the data set with amyloidosis phenotypes was “rescue amyloidosis phenotypes and prolong cell survival”. In addition, in data set [1] (ITC forward titration, one-site model), the “binding stoichiometry (n)” value was 1.07 ± 0.02. For the same molecule, in [1], the “-TΔS” value came out at 1.4 ± 0.2 kcal/mol, the ΔH is -9.7 ± 0.2 kcal/mol and the Kd turned out to be 0.7 ± 0.01 µM. Moreover, the aggregation point in data set [5] is 50 µM. In data set [6], this molecule had an IC50 of 130 ± 17 µM. Also, the “calculated radius of Pot1pN/CR species” value at Pot1pN is 3.8 nm. On Pot1pN (consistent with 3:3 trimer complex), the “calculated MW of Pot1pN/CR species” value is 77 kDa.

On to d(GGTTAC) [6mer], for which the Kd in [7] is 0.03 µM.

On to `Cc1ccc2c(c1)sc(-c1ccc(N(C)C)cc1)[n+]2C` [Thioflavin T], for which the “inhibition of Pot1pN binding to 6mer” value in data set [2] is “no effect”. The “binding to Pot1pN by ITC” value in data set [1] (2 mM Thioflavin T titrated into Pot1pN, single replicate) was “no detectable binding”.

B1: d(GGTTACGGTTAC) (ssDNA)
DNA: GGTTACGGTTAC
For the molecule B1, in the data set with SpPot1-DBD (Pot1-DBD), the binding result is given as “binds”.

B2: d(GGTTAGGGTTAG) (ssDNA)
DNA: GGTTAGGGTTAG
In the case of B2, the binding result with hPOT1 (hPOT1-DBD) is given as “binds”.

B3: biotin-d(TAAGGTTAC) (ssDNA)
DNA: TAAGGTTAC
modifications: 5' biotin (printed as biotin-conjugated threonine), 3-nt TAA linker
For the molecule B3, the binding result with 6xHis-Pot1pN (TR-FRET) is reported as “binds”.

B4: 6mer (ssDNA)
DNA: GGTTAC
Regarding B4, in data set [8], the binding result is listed as “binds”.
